Assays:
[1] = cited from earlier work
[2] = cited from earlier work; remark: listed apart in the source
[3] = system: NO-induced methemoglobinemia; test: NO-induced methemoglobinemia and lung inflammation after accidental NO exposure, H2 inhalation and magnesium ingestion (Example 12); assay type: in vivo, human
Source text: During the course of developing the described methods for producing NO for a more affordable, effective, and safe source of NO therapy, one of the inventors accidentally exposed themself both chronically and acutely to NO gas. […] Since onset of symptoms, the inventor inhaled H2 gas, produced by reacting elemental magnesium and citric acid in a glass of water.
Their condition and SpO2 worsened throughout the day, and later that night they were admitted in the emergency room at a hospital with a recorded SpO2 of 45%. The hospital verified that the inventor developed NO-induced lung inflammation by X-rays and a CAT scan. Upon the diagnosis, blood samples were taken from the inventor to measure methemoglobin levels. […] A normal methemoglobin fraction is about 1%. […] Accordingly, no methemoglobin treatment (e.g., intravenous administration of methylene blue) was administered to the inventor.

[4] = Inventor exposed to NO levels higher than 25 ppm during development, SpO2 oximeter; assay type: in vivo, human
Source text: In fact, the inventor's oxygenation levels as measured by SpO2 oximeter were always in the 97-100 range. Accordingly, also disclosed herein are methods of preventing the onset of methemoglobinemia from nitrate, nitrite, or NO exposure, wherein the method comprising administering hydrogen to the subject exposed to a source of nitrate, a source of nitrite, or NO.

[5] = cited from earlier work; remark: listed apart in the source
[6] = system: subject with respiratory illness

For O=[N+]([O-])O [nitrate alone], the oxygen saturation ([1]; 409 mg and 479 mg doses, Rosetti et al., Barlow et al.) is listed as “failed to produce any increase in oxygen saturation”.

For O=[N+]([O-])[O-].[Na+] [sodium nitrate], the “oxygen consumption during exercise” value ([1]; Larsen et al., Bailey et al.) is listed as “reduce oxygen consumption during exercise”.

In the case of [O]N=O [NO2, nitrogen dioxide], the “permissible exposure limit in homes and offices” value ([2]; OSHA, 9 mg/m^3) is given as ≤ 5 ppm, the “concentration that can trigger symptoms in asthmatic people” value ([2]; OSHA) is given as 2 ppm and the “concentration that starts to damage the lungs” value ([2]; OSHA) is given as 5 ppm. The “levels shown to cause respiratory discomfort in vulnerable populations” value ([2]; asthmatics) was ≥ 0.1 ppm and the “concentration that can kill a human” value ([2]; exposed for about an hour) was 100 ppm.

In the case of [N]=O [NO, nitric oxide], the “SpO2 one day after exposure to high ambient NO” value ([3]; ambient NO >80 ppm) is given as 85%, the “SpO2 recorded in the emergency room later that night” value ([3]; ambient NO >80 ppm, after prolonged H2 inhalation) is given as 45% and the outright toxic concentration ([2]; in vivo) is given as ≥ 100 ppm. The ill effects ([4]; NO levels higher than 25 ppm) was “no ill effects” and the “oxygenation levels by SpO2 oximeter” value ([4]; exposed multiple times to NO levels higher than 25 ppm) was 97-100.

In the case of O=NO [Sodium nitrite], the methemoglobin level ([5]; 600 mg to an adult for cyanide toxicity, van Heijst et al.) is listed as 58%, the “lowest calculated lethal dose” value ([5]; Katabami et al.) is listed as 2.6 grams and the “dose in a reported case of severe methemoglobinemia” value ([5]; in vivo) is listed as “about 70 mg”.

In the case of O=[N+]([O-])[O-].[K+] [potassium nitrate], the “lower blood oxygen saturation versus the placebo” value ([1]; hypoxic conditions, Schiffer et al.) is listed as “about 3%”, the “other symptoms (weakness, coughing)” value ([6]; human, in vivo) is listed as “no attenuation of their other symptoms” and the “SpO2 for up to 4 hours after administration” value ([6]; person) is listed as “showed no signs of increase”. The “SpO2 15 minutes after administration” value ([6]; person, baseline 93%) was 93%.

In the case of [HH] [H2 gas, hydrogen], the “methemoglobin in blood samples” value ([3]; at SpO2 of 45%, after H2 inhalation and 2000 mg elemental magnesium powder) is reported as “no methemoglobin was detected”, the “minor methemoglobinemia caused by inhalation of NO gas” value ([3]; other experiments, SpO2 returning to normal) is reported as “reversed” and the “increase in relative humidity” value (for every about 40 ppm increase in H2 concentration, 30 C) is reported as 1%. For the same molecule, the “H2 concentration shown safe (no symptoms of water in the lungs)” value (sensor limit 1000 ppm) was 1000 ppm.

From US12156886B2, “Methods of increasing blood oxygen saturation” (ThermoLife International, LLC, priority 2020, dated 2024)
